Assay: Solubility of tetraalkyl bisphosphates in water (separating funnel test)
Format: physicochemical
Details: for water solubility (phase separation observed): 50.0 g tetraalkyl bisphosphate + 50.0 g fully demineralized water, shaken, left to stand 1 hour, residue of aqueous phase / weight of aqueous phase; for solubility / miscibility in water (in words): conclusion from the phase separation experiments; for phase separation in further experiments: different weight ratios of tetraalkyl bisphosphate and water
Method: A separating funnel was charged with 50.0 g of tetraalkyl bisphosphate and 50.0 g of fully demineralized water, and was shaken vigorously and then left to stand for 1 hour. If phase separation became apparent, the lower, aqueous phase was carefully separated off and weighed (mw). The aqueous phase was concentrated to constant weight under reduced pressure on a rotary evaporator, and the residue was likewise weighed (mR).

| Compound | water solubility (phase separation observed) | solubility / miscibility in water (in words) | phase separation in further experiments |
| --- | --- | --- | --- |
| tetramethyldiethylene glycol bisphosphate | no phase separation | fully water-soluble | no phase separation |
| CCOP(=O)(OCC)OCCOCCOP(=O)(OCC)OCC [Tetraethyldiethylene glycol bisphosphate, tetraethyldiethylene glycol bisphosphate] | no phase separation | fully water-soluble | no phase separation |

From US20120184765A1, “Process for preparing alkyl phosphates” (LANXESS DEUTSCHLAND GMBH, priority 2011, published 2012)
